Assays:
Test in all cases: relative viability (nuclei count vs DMSO), 5 days (fraction); higher = more cells survive
JQ1 = compound: Cc1sc2c(c1C)C(c1ccc(Cl)cc1)=N[C@@H](CC(=O)OC(C)(C)C)c1nnc(C)n1-2 [JQ1]
How it was run: (§1)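 Lung cancer cell lines received five library-drug doses (not always all listed) spaced by √10, pinned on vehicle-anchored 1536-well plates after an overnight stay at 37 °C. Five days later, with no medium change, nuclei were Hoechst-stained, imaged at 4× and counted with MetaXpress. Viability is treated-well nuclei relative to vehicle-well nuclei, as a median across plates. Passing plates had control CV below 25% and at least one doubling.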

CPI-613 = compound: O=C(O)CCCCC(CCSCc1ccccc1)SCc1ccccc1 [CPI-613]
How it was run: as §1

Tivozanib = compound: COc1cc2nccc(Oc3ccc(NC(=O)Nc4cc(C)on4)c(Cl)c3)c2cc1OC [Tivozanib]
How it was run: as §1

[1] = compound: Cc1cnc(-c2cnc(NCCNc3ccc(C#N)cn3)nc2-c2ccc(Cl)cc2Cl)[nH]1
How it was run: as §1

Docetaxel = compound: CC(=O)O[C@@]12CO[C@@H]1C[C@H](O)[C@@]1(C)C(=O)[C@H](O)C3=C(C)[C@@H](OC(=O)[C@H](O)[C@@H](NC(=O)OC(C)(C)C)c4ccccc4)C[C@@](O)([C@@H](OC(=O)c4ccccc4)[C@H]21)C3(C)C [Docetaxel]
How it was run: as §1

Pimozide = compound: O=c1[nH]c2ccccc2n1C1CCN(CCCC(c2ccc(F)cc2)c2ccc(F)cc2)CC1 [Pimozide]
How it was run: as §1

Cytarabine = compound: Nc1ccn([C@@H]2O[C@H](CO)[C@@H](O)[C@@H]2O)c(=O)n1 [Cytarabine]
How it was run: as §1

Cell Line | relative viability (JQ1; 0.04 µM) | relative viability (JQ1; 0.1265 µM) | relative viability (JQ1; 0.4 µM) | relative viability (JQ1; 1.265 µM) | relative viability (JQ1; 4 µM) | relative viability (CPI-613; 5 µM) | relative viability (CPI-613; 15.81 µM) | relative viability (CPI-613; 50 µM) | relative viability (CPI-613; 158.11 µM) | relative viability (CPI-613; 500 µM) | relative viability (Tivozanib; 0.005 µM) | relative viability (Tivozanib; 0.01581 µM) | relative viability (Tivozanib; 0.05 µM) | relative viability (Tivozanib; 0.5 µM) | relative viability ([1]; 0.08 µM) | relative viability ([1]; 0.253 µM) | relative viability ([1]; 0.8 µM) | relative viability ([1]; 2.53 µM) | relative viability (Docetaxel; 0.0002 µM) | relative viability (Docetaxel; 0.000632 µM) | relative viability (Docetaxel; 0.002 µM) | relative viability (Docetaxel; 0.006325 µM) | relative viability (Docetaxel; 0.02 µM) | relative viability (Pimozide; 0.08 µM) | relative viability (Pimozide; 0.253 µM) | relative viability (Pimozide; 0.8 µM) | relative viability (Pimozide; 2.53 µM) | relative viability (Pimozide; 8 µM) | relative viability (Cytarabine; 0.005 µM) | relative viability (Cytarabine; 0.01581 µM) | relative viability (Cytarabine; 0.05 µM) | relative viability (Cytarabine; 0.1581 µM) | relative viability (Cytarabine; 0.5 µM) | relative viability (Tivozanib; 0.1581 µM)
NCI-H2342 | 1.17 | 0.775 | 0.993 | 0.943 | 0.756 | 0.929 | 1.01 | 1.07 | 0.97 | 1.07 | 0.88 | 0.948 | 0.886 | 0.987 | 1.13 | 0.794 | 0.952 | 0.903 | 1.04 | 0.818 | 0.692 | 0.619 | 0.484 | 1.01 | 0.876 | 0.912 | 0.863 | 0.995 | 0.909 | 0.878 | 0.793 | 0.744 | 0.608 | –
NCI-H2347 | 0.992 | 0.771 | 0.886 | 0.709 | 0.518 | 1.03 | 0.866 | 0.96 | 0.776 | 0.844 | 0.95 | 0.997 | 1.17 | 1 | 1.08 | 0.894 | 0.958 | 1.09 | 0.973 | 0.952 | 0.726 | 0.52 | 0.459 | 0.911 | 0.957 | 0.828 | 0.962 | 0.986 | 1.07 | 0.914 | 0.825 | 0.658 | 0.661 | 0.939
NCI-H2405 | 1.03 | 0.598 | 0.921 | 0.711 | 0.499 | 0.996 | 0.909 | 0.939 | 0.931 | 0.78 | 0.933 | 1.02 | 1.04 | 0.772 | 1.01 | 0.938 | 0.948 | 0.736 | 0.982 | 0.879 | 0.633 | 0.453 | 0.339 | 0.964 | 0.937 | 1.03 | 0.992 | 0.96 | 0.927 | 0.712 | 0.57 | 0.512 | 0.384 | 0.89
NCI-H3122 | 0.962 | 0.791 | 0.96 | 0.857 | 0.518 | 0.969 | 1.01 | 1.02 | 0.956 | 0.146 | 0.961 | 1.03 | 1.01 | 1.02 | 0.962 | – | 0.988 | 0.965 | 0.981 | 0.839 | 0.731 | 0.184 | 0.12 | 0.983 | 1.02 | 0.948 | 0.962 | 1.03 | 0.99 | 0.928 | 0.971 | 0.553 | 0.399 | 1.12
PC-3 [JPC-3] | 0.999 | 0.997 | 0.762 | 0.675 | 0.606 | 1.01 | 0.952 | 1.01 | 0.789 | 0.358 | 1.03 | 1.05 | 1.06 | 0.912 | 1 | 0.909 | 1.04 | 1.03 | 0.98 | 1.01 | 0.585 | 0.344 | 0.188 | – | 0.984 | 0.945 | 1.01 | 0.894 | 0.945 | 0.971 | 0.773 | 0.618 | 0.631 | 1.05
PC-14 | 0.971 | 0.684 | 0.652 | 0.333 | 0.22 | 0.956 | 0.9 | 0.941 | 0.685 | 0.595 | 0.924 | 1.05 | 1.06 | 0.927 | 1.07 | 0.861 | 1.04 | 0.867 | 0.941 | 0.742 | 0.209 | 0.081 | 0.0432 | – | 0.965 | 0.851 | 0.915 | 0.987 | 0.881 | 0.922 | 0.565 | 0.174 | 0.127 | 1.03
RERF-LC-KJ | 0.985 | 1.01 | 0.967 | 0.624 | 0.423 | 0.978 | 0.883 | 1.02 | 0.891 | 0.865 | 0.951 | 0.939 | 1.06 | 0.969 | 1.1 | 0.906 | 0.89 | 1 | 0.94 | 0.79 | 0.335 | 0.218 | 0.173 | 0.959 | 0.887 | 0.867 | 0.869 | 0.792 | 0.869 | 0.907 | 0.77 | 0.567 | 0.435 | 0.935
SK-LU-1 | 1 | 0.91 | 0.91 | 0.377 | 0.238 | 1.04 | 0.911 | 0.995 | 0.668 | 0.473 | 1 | 1.02 | 1.12 | 1.05 | 1.12 | 0.967 | 1.06 | 1.14 | 0.843 | 0.64 | 0.425 | 0.329 | 0.255 | 1.02 | 1.03 | 0.986 | 0.876 | 0.858 | 0.853 | 0.868 | 0.776 | 0.433 | 0.322 | 0.928
SK-MES-1 | 0.937 | 0.717 | 0.603 | 0.311 | 0.25 | 0.967 | 0.904 | 0.98 | 0.531 | 0.477 | 0.997 | 0.993 | 1.02 | 0.959 | 1.09 | 0.947 | 1.02 | 1.1 | 1 | 0.872 | 0.418 | 0.267 | 0.172 | 0.942 | 0.998 | 0.979 | 1.01 | 0.985 | 0.875 | 0.712 | 0.355 | 0.258 | 0.221 | 1
